Literature values in US20160330969A1, “ANTIMICROBIAL COMPOSITIONS AND ARTICLES” (priority 2013, published 2016).

Conditions: decomposition to chlorite and chlorate species, pH 5-8 region

SMILES: OCl [HOCl, hypochlorous acid]
- pH of maximum rate of decomposition: 6.89
